Data taken from patent US3941842A, “P,P'-Disubstituted α-trichloromethylbenzylanilines” (priority 1972, dated 1976).

How the values were obtained:
[1] = Model ecosystem: distribution, ecological magnification and Biodegradability Index
From the text: After the amounts of the various metabolites have been calculated and a determination is made as to which of the metabolites are to be designated as "polar" and which are to be designated as "non-polar", a Biodegradability Index (amount of polar metabolites/amount of nonpolar metabolites) may be calculated. Remembering that nonpolar compounds, such as DDT are readily soluble in the fatty tissues, but are not readily soluble in water based solutions, and that the cell fluid is essentially a water based solution, the lower the Biodegradability Index, the lower the amount of biodegradability of the compound. The higher the amount of polarity, the greater the likelihood that the polar compound will dissolve in water, a very polar compound, and be eliminated from the cell.
The environmental fate of any new pesticide is a factor of paramount importance in determining how and where it might be used. The behavior of ^3 H-α-trichloromethyl-p-ethoxybenzyl-p-ethoxyaniline has been studied by the model ecosystem technique following application of 5.0 mg. of labeled compound to Sorghum plants. A summary of
metabolites from the organisms in the model ecosystem after 33 days were
identified by cochromatography with standards of known constitution, by
appropriate chromogenic reagents, and by high-resolution mass
spectrometry. The data of Table IV indicate the O-dealkylation of
Food Chem. 1 (1972). Ethoxychlor was found in the snail to 58.6 ppm and in the fish to 0.92 ppm, along with its ethylene and the mono- and bis-phenols formed by O-dealkylation. The ecological magnification (E.M.) of ethoxychlor, defined as the ratio of the parent material in the fish to the concentration in the water, was 1500-fold as compared with an E.M. of only 0.7-fold for the ethoxyaniline.
Comparing the Biodegradability Indices (B.I.=total recovered polar metabolites/total recovered nonpolar metabolites) the values are 0.44 for ethoxychlor and 2.0 for ethoxyaniline.

[2] = background; cited from earlier work
[3] = background; cited from earlier work; remark: listed apart in the source
insects = conditions: background; cited from earlier work
[4] = tested on: multifunction oxidase (MFO) enzymes; conditions: background; cited from earlier work

In the case of `Clc1ccc(C(c2ccc(Cl)cc2)C(Cl)(Cl)Cl)cc1` [DDT, 1,1,1 trichloro-2,2-bis(p-chlorophenyl)ethane], the “ecological magnification (E.M.)” value ([1]; ratio of parent material in fish to concentration in water) is given as 84,000 fold, the “Biodegradability Index (B.I.)” value ([1]; total recovered polar/total recovered nonpolar metabolites) is given as 0.015 and the “lipid solubility (in words)” value [2] is given as “high lipid solubility”. For the same compound, the “water solubility (in words)” value [2] was “very low water solubility”, the “accumulation in animal tissues (in words)” value [3] was “accumulation in the fatty or lipid tissues of animals” and the “insecticidal activity (in words)” value (insects) was “effective contact or residual insecticide”. The “biodegradability (in words)” value [4] was “not biodegradable” and the “susceptibility to MFO enzymes (in words)” value [4] was “do not function on DDT and its metabolic derivatives DDE and DDD”.
